The results in this text go back to PMC9659204, “Biochemical Characterization of Pyranose Oxidase from Streptomyces canus—Towards a Better Understanding of Pyranose Oxidase Homologues in Bacteria” (International Journal of Molecular Sciences, 2022).

Structures are written as SMILES.

As usually defined, the Km is the concentration of substrate that gives half-maximal velocity.

For this assay, the system named is T1, ScPOx (pyranose oxidase from Streptomyces canus).
T1 construct: synthetic codon-optimised gene in pET-21d+ (NcoI/HindIII), C-terminal His6 tag, E. coli BL21(DE3); 52 kDa monomer, noncovalent FAD
The assay is described as follows: steady-state kinetics, spectrophotometric. The note with it: apparent; electron acceptor; 4 M D-xylose as electron donor; 50 mM potassium phosphate pH 6.5; 30 °C. The assay is classed as biochemical. The text has this: steady-state kinetics, spectrophotometric on ScPOx (pyranose oxidase from Streptomyces canus)

On to `O=C1C(Cl)=CC(=Nc2ccc(O)cc2)C=C1Cl` [DCIP], for which the Michaelis constant (Km) is 50 ± 10 µM.
For `O=C1C=CC(=O)C=C1` [p-BQ] the value was 130 ± 20 µM.
